In brackets after ≈: the same amount, converted by molar mass.
Tests used:
Staphylococcus aureus [1] = experiment: Antimicrobial activity against methicillin-susceptible Staphylococcus aureus ATCC 29213 by M7-A7 dilution method; assay type: functional
Staphylococcus aureus [2] = experiment: Bactericidal activity against methicillin-resistant Staphylococcus aureus; assay type: functional
Staphylococcus aureus [3] = experiment: Antimicrobial activity against methicillin-resistant Staphylococcus aureus; assay type: functional
Staphylococcus aureus [4] = experiment: Ratio of MBC to MIC for methicillin-resistant Staphylococcus aureus; assay type: functional
Staphylococcus aureus [5] = experiment: Antimicrobial activity against methicillin-resistant Staphylococcus aureus in mouse systemic infection model; assay type: functional
[6] = target: T1, Penicillin-binding protein 1 (Staphylococcus aureus, UniProt Q53725); experiment: Inhibition of methicillin-susceptible Staphylococcus aureus ATCC 29213 PBP 1
T1 sequence (Q53725 whole entry): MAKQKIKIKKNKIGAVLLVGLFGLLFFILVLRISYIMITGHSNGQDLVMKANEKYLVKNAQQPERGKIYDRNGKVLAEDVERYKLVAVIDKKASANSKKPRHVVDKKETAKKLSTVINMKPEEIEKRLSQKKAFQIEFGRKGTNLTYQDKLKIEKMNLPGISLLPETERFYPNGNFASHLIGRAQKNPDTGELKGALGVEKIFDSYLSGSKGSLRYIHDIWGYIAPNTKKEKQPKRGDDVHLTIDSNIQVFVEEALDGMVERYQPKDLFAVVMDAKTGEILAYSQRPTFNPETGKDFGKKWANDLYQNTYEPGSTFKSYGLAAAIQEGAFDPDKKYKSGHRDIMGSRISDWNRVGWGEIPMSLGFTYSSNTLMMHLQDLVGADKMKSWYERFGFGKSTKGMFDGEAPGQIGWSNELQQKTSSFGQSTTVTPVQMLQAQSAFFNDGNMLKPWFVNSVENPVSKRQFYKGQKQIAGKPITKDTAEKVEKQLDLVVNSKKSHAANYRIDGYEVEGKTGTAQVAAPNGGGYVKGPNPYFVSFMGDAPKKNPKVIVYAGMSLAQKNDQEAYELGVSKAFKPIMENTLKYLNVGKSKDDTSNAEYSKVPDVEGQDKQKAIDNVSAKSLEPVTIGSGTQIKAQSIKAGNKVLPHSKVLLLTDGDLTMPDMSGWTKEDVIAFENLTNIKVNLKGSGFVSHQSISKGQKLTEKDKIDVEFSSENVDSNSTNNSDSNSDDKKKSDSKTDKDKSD

Staphylococcus aureus [7] = experiment: Antimicrobial activity against methicillin-resistant Staphylococcus aureus infected in patient with complicated skin and skin structure infection assessed as cure rate at 500 mg/kg, iv administered every 12 hrs; assay type: functional
Staphylococcus aureus [8] = experiment: Antimicrobial activity against methicillin-resistant Staphylococcus aureus infected in patient with complicated skin and skin structure infection assessed as cure rate at 1 g/kg, iv administered every 12 hrs; assay type: functional
MecA [9] = target: T2, MecA (Staphylococcus aureus, UniProt Q7DHH4); experiment: Inhibition of methicillin-resistant Staphylococcus aureus OC 3726 PBP 2a
T2 sequence (Q7DHH4 whole entry): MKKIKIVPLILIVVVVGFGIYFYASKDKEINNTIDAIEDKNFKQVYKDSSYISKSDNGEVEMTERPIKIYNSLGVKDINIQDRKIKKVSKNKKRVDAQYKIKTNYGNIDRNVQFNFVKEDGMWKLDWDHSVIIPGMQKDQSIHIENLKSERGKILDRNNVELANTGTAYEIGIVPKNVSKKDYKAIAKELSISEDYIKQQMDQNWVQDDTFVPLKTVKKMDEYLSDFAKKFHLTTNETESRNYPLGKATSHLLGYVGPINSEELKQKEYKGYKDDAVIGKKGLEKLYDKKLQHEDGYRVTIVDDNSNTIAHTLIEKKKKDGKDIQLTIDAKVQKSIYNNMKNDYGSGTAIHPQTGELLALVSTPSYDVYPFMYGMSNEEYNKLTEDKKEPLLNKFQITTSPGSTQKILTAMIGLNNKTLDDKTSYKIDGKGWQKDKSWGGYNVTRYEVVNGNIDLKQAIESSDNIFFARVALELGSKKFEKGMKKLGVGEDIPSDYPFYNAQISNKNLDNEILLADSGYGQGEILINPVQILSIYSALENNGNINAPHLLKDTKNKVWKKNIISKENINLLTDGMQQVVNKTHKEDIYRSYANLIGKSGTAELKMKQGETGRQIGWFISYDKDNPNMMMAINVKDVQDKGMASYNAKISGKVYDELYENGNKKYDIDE

[10] = target: T3, Penicillin-binding protein 2b (Staphylococcus aureus, UniProt Q9XDB3); experiment: Inhibition of methicillin-susceptible Staphylococcus aureus ATCC 29213 PBP 3
T3 sequence (Q9XDB3 whole entry): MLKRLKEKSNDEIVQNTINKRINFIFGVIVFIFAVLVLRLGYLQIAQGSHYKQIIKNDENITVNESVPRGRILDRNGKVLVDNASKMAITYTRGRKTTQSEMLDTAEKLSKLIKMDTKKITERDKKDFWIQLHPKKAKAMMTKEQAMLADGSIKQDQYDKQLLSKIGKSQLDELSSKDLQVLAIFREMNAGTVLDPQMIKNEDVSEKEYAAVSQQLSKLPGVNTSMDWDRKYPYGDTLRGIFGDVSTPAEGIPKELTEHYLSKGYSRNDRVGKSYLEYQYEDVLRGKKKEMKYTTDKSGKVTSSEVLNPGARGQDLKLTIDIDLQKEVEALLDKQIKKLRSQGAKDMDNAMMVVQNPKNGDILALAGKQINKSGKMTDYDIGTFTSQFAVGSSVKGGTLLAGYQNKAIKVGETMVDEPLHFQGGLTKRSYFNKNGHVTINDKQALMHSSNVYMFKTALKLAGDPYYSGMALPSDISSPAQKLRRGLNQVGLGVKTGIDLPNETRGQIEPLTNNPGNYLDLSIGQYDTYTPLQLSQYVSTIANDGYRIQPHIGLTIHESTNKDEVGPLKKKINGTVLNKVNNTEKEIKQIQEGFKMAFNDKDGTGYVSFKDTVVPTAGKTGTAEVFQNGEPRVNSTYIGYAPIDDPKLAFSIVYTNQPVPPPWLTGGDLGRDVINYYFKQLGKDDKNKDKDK

[11] = target: T4, Penicillin-binding protein 4 (Staphylococcus aureus, UniProt P72355); experiment: Inhibition of methicillin-susceptible Staphylococcus aureus ATCC 29213 PBP 4
T4 sequence (P72355 whole entry): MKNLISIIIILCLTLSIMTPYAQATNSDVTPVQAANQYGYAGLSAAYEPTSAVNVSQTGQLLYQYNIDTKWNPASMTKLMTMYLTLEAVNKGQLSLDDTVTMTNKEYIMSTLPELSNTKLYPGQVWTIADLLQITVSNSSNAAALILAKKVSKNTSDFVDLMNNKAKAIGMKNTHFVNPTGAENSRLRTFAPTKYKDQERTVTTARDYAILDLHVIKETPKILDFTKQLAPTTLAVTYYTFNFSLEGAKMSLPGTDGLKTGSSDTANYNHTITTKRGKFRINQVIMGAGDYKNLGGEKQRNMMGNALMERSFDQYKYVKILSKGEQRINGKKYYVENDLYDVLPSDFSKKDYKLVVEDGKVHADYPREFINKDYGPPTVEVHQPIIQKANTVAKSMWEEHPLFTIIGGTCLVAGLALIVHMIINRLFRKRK

[12] = target: T5, Penicillin-binding protein 2 (Staphylococcus aureus, UniProt Q53729); experiment: Inhibition of methicillin-susceptible Staphylococcus aureus ATCC 29213 PBP 2
T5 sequence (Q53729 whole entry): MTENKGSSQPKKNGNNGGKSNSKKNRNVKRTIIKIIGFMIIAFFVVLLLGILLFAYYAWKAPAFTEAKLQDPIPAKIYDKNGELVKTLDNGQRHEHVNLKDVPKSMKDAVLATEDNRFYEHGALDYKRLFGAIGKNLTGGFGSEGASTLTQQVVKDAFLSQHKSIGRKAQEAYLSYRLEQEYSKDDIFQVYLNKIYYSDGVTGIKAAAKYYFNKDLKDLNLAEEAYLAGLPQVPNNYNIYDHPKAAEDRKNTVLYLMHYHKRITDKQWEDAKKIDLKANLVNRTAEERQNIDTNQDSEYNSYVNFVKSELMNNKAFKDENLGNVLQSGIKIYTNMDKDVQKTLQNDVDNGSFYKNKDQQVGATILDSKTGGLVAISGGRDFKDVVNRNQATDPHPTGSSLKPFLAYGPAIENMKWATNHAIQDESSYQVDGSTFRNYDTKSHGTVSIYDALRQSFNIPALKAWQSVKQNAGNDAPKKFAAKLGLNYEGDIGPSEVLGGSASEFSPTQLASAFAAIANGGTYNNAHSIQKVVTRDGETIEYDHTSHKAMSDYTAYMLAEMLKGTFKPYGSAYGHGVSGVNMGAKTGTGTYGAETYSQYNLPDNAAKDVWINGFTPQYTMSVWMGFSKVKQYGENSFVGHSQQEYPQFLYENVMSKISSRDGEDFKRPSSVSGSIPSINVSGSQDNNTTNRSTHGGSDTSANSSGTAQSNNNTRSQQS

MecA [13] = target: T2, MecA; experiment: Binding affinity to methicillin-resistant Staphylococcus aureus MF535HR PBP 2a by competitive binding assay
Staphylococcus aureus [14] = experiment: Antimicrobial activity against methicillin-resistant Staphylococcus aureus ATCC 29213 by CLSI method; assay type: functional
MecA [15] = target: T2, MecA; experiment: Inhibition of methicillin-resistant Staphylococcus aureus PBP 2a
Staphylococcus aureus [16] = experiment: Antimicrobial activity against vancomycin-intermediate Staphylococcus aureus; assay type: functional
[17] = target: T5, Penicillin-binding protein 2; experiment: Binding affinity to methicillin-susceptible Staphylococcus aureus PBP 2
Staphylococcus aureus [18] = experiment: Antimicrobial activity against daptomycin-nonsusceptible Staphylococcus aureus; assay type: functional
[19] = target: T1, Penicillin-binding protein 1; experiment: Binding affinity to methicillin-susceptible Staphylococcus aureus PBP 1
[20] = target: T4, Penicillin-binding protein 4; experiment: Binding affinity to methicillin-susceptible Staphylococcus aureus PBP 4
Staphylococcus aureus [21] = experiment: Antimicrobial activity against community-acquired Staphylococcus aureus; assay type: functional
Staphylococcus aureus [22] = experiment: Antimicrobial activity against vancomycin-resistant Staphylococcus aureus; assay type: functional
[23] = target: T3, Penicillin-binding protein 2b; experiment: Binding affinity to methicillin-susceptible Staphylococcus aureus PBP 3

## CC(C)(O/N=C(\C(=O)N[C@@H]1C(=O)N2C(C(=O)[O-])=C(C[n+]3ccccc3)CS[C@H]12)c1csc(N)n1)C(=O)O [CEFTAZIDIME]
Staphylococcus aureus [1]
  MIC: > 128 µg/mL

## C[C@H]1C=C(c2csc(SC3=C(C(=O)O)N4C(=O)[C@H]([C@@H](C)O)[C@H]4[C@H]3C)n2)CN1 [RAZUPENEM]
Staphylococcus aureus [2]
  MBC: 0.5 µg/mL (≈ 1.23 µM)
Staphylococcus aureus [3]
  MIC90: 2 µg/mL (≈ 4.91 µM)
Staphylococcus aureus [4]
  Ratio: 1
Staphylococcus aureus [5]
  ED50: 4.7 mg/kg

## CC(=O)NC[C@H]1CN(c2ccc(N3CCOCC3)c(F)c2)C(=O)O1 [LINEZOLID]
Staphylococcus aureus [5]
  ED50: 7.4 mg/kg

## CO/N=C(\C(=O)N[C@@H]1C(=O)N2C(C(=O)O)=C(CSc3nc(=O)c(O)nn3C)CS[C@H]12)c1csc(N)n1 [CEFTRIAXONE]
Staphylococcus aureus [1]
  MIC: > 64 µg/mL

## Cc1oc(=O)oc1COC(=O)N1CC[C@@H](N2CC/C(=C\C3=C(C(=O)O)N4C(=O)[C@@H](NC(=O)/C(=N/O)c5nsc(N)n5)[C@H]4SC3)C2=O)C1 [CEFTOBIPROLE MEDOCARIL FREE ACID]
[6]
  IC50: 145 nM
Staphylococcus aureus [1]
  MIC: 2 µg/mL (≈ 2.9 µM)
Staphylococcus aureus [7]
  Activity: 92%
Staphylococcus aureus [8]
  Activity: 90%
MecA [9]
  IC50: 1300 nM
[10]
  IC50: 72.4 nM
[11]
  IC50: 1450 nM
[12]
  IC50: 724 nM

## C[C@@H](O)[C@H]1C(=O)N2C(C(=O)[O-])=C(c3cn4cnc(C(=O)c5ccc[n+](CC(N)=O)c5)c4s3)[C@H](C)[C@H]12
MecA [13]
  IC50: 262 nM

## CCO/N=C(\C(=O)N[C@@H]1C(=O)N2C(C(=O)[O-])=C(Sc3nc(-c4cc[n+](C)cc4)cs3)CS[C@H]12)c1nsc(NP(=O)(O)O)n1 [CEFTAROLINE FOSAMIL]
Staphylococcus aureus [14]
  MIC: 0.25 µg/mL (≈ 0.365 µM)
MecA [15]
  IC50: 234 nM
Staphylococcus aureus [16]
  MIC90: 1 µg/mL (≈ 1.46 µM)
[17]
  IC50: 49.7 nM
Staphylococcus aureus [18]
  MIC: 0.5 µg/mL (≈ 0.73 µM)
[19]
  IC50: 146 nM
[20]
  IC50: > 1460 nM
Staphylococcus aureus [21]
  MIC90: 1 µg/mL (≈ 1.46 µM)
Staphylococcus aureus [22]
  MIC: 0.12 µg/mL (≈ 0.175 µM)
[23]
  IC50: 71.6 nM

## CN[C@H](CC(C)C)C(=O)N[C@H]1C(=O)N[C@@H](CC(N)=O)C(=O)N[C@H]2C(=O)N[C@H]3C(=O)N[C@H](C(=O)N[C@H](C(=O)O)c4cc(O)cc(O)c4-c4cc3ccc4O)[C@H](O)c3ccc(c(Cl)c3)Oc3cc2cc(c3O[C@@H]2O[C@H](CO)[C@@H](O)[C@H](O)[C@H]2O[C@H]2C[C@](C)(N)[C@H](O)[C@H](C)O2)Oc2ccc(cc2Cl)[C@H]1O [VANCOMYCIN]
Staphylococcus aureus [5]
  ED50: 6 mg/kg
